Measurements published in US5334593A, “Anxiolytic drugs” (Yamasa Shoyu Kabushiki Kaisha, priority 1990, dated 1994).

Assays:
male ICR mice [1] = test: Muscle relaxant activity (rotated wire screen test); details: muscle relaxant ED50 / minimum effective dose for anti-conflict activity
Experimental: (§1) The muscle relaxant activities of the test compounds, 1-amino-5-bromouracil(ABU), 1-amino--5-chlorouracil (ACU) and diazepam (DZP), were determined in accordance with the method of L. L. Coughenour et al. [see Pharmacol. Biochem. & Behav., 6, 351-353 (1977)].
(§2) Male ICR mice were placed on a 13 cm×13 cm No. 4 wire screen, and the screen was then rotated by 180 degrees. Those mice which were able to return to the screen within one minute were referred to "successful" mice. The suspension of each test compound prepared in the same manner as in Test Example 1 was administered orally to the mice. The mice were then subjected to the above test. The dose of the test compound at which 50% of the mice successfully returned to the screen was determined as ED50 (A).
(§3) Furthermore, the validity of each of the test compounds as an anxiolytic drug was expressed as A/B value.

in vivo = details: mouse, in vivo, po
Experimental: as §1, §2, §3

male ICR mice [2] = test: Anti-conflict activity (Vogel type conflict test); assay type: in vivo, mouse (ICR); details: for number of water-drinking: 10 minutes
Experimental: The method is described below.
Male ICR mice (6 weeks old) were deprived of water for one day before the test. The mice were then individually placed in the test box, and given water ad libitum for 10 minutes. Thereafter, they were placed back in their home cages, given water ad libitum overnight, and again deprived of water for two days. The mice thus treated were used for the measurement.
ABU, the test compound, was suspended in physiological saline containing 0.5% CMC, and the suspension was administered intraperitoneally to the above mice. .On the other hand, as a positive control compound, DZP was administered in the same manner. Fifteen minutes after the administration,the mice were placed in the test box, and allowed to freely drink one count of water (one drop: approximately 40 ul ). Thereafter, a 50 V electric foot shock was given from the grid floor to the mice every time they drunk one count of water. Under such conditions, the number of water-drinking was counted over a period of 10 minutes. The number of water-drinking performed by a group of mice to which the test compound was administered was compared with that of water-drinking performed by a group of mice to which a vehicle (physiological saline containing 0.5% CMC and no test compound) was administered.
The significant difference was ascertained by the Mann-Whitney's U-test.

[3] = Acute toxicity (oral administration); details: mouse, in vivo, male ICR mice, Litchfield-Wilcoxon method
Experimental: The acute toxicity (LD50 value) per oral administration was determined by the following method.
The test compound (1-amino-5-bromouracil (ABU) or 1-amino-5-chlorouracil (ACU) was suspended in distilled water containing 0.5% carboxymethyl cellulose (CMC). ABU or ACU was administered orally to male ICR mice (1 group: 10 mice) in a dose of 1000-2800 mg/kg or 500-1400 mg/kg, and the LD50 values were determined according to the Litchfield-Wilcoxon method. The results are shown in Table 2.

ICR mice = test: Acute toxicity (intraperitoneal administration); assay type: in vivo, mouse (ICR); details: one week
Experimental: 1-Amino-5-bromouracil (ABU) was suspended in physiological saline containing 0.5% carboxymethyl cellulose (CMC). ABU was administered intraperitoneally to 8 ICR mice in a dose of 500 mg/kg, and their lethality was observed over a period of one week.
Further, 1-amino-5-chlorouracil (ACU) was administered intraperitoneally to 10 male ICR mice in a dose of 357 mg/kg, and their lethality was observed over a period of one week.

male Wistar rats = test: Anti-conflict activity (Geller type conflict test); assay type: in vivo, rat (Wistar); details: for number of lever pressing during the alarm periods / number of lever pressing during the safety periods: one hour, vs control; for minimal effective dose: Rattus norvegicus, oral, from results of Test Example 1, read-out: Minimum Effective Dose for Anti-Conflict Activity [B]
Experimental: The activities of the test compounds were evaluated by the Geller type conflict test which is frequently employed as a preclinical evaluation method of an anxiolytic drug [see Psychophamacologia, 1, 482-492 (1960 )]. The method is described below.
1-Amino--5--chlorouracil (ACU) , 1-amino-5-bromouracil (ABU) and 1-amino-5-fluorouracil (AFU) were used as the test compounds. These compounds were respectively suspended in distilled water containing 0 . 5% carboxymethyl cellulose (CMC) to obtain suspensions suitable for oral administration. In addition, diazepam (DZP) serving as a positive control compound was also prepared as a suspension suitable for oral administration in the same manner.
A skinner box (manufactured by OHARA & Co. , Ltd. ) used for the test was equipped with a lever, a light and a buzzer, and its floor was a grid made of stainless steel. When the lever was pressed, pellets (food) were supplied from a feeder, and, if necessary, an electric shock was given from the floor.
Male Wistar rats were deprived of food during the night to restrain an increase in the body weight, and a training of the animals was started. After the number of lever pressing performed by the rats reached the predetermined level by following a reinforcement schedule in which food pellets were supplied once every ten times of lever pressing (FR-10) , two periods, that is, a 7-minute safety period and a 3-minute alarm period were alternately incorporated in the schedule - During the alarm period, the rats were signaled by the light and buzzer, and further by an electric shock given from the floor every time they were supplied with food pellets. Those rats which were trained to press the lever 19 times or less during the alarm period were used for the measurement. Immediately after a suspension of a test compound prepared in the above-described manner was administered orally to the rats, they were placed in the skinner box, and the numbers of lever pressing were counted over a period of one hour. The numbers thus obtained were compared with those obtained by the control wherein distilled water containing 0.5% CMC and no test compound was orally administered to the rats and the number of lever pressing was counted for one hour. The significant difference was ascertained by the Wilcoxoh's signed rank test. The results are shown in FIG. 1A, FIG. 1B, FIG. 1C, FIG. 2A and FIG. 2B.
To the rats used for the above test, no drugs were administered for one week, and then they were repeatedly used for the same test.
Further, the minimum effective dose (B) for anti-conflict activity of each of the above-described test compounds was determined on the basis of the results obtained in Test Example 1.

[4] = cited from earlier work

Nn1cc(Br)c(=O)[nH]c1=O [ABU, 1-amino-5-bromouracil]
Validity [A/B] (male ICR mice [1]): 7.4
ED50 (in vivo): 74.1 mg/kg
sensitivity to an electric shock (male ICR mice [2]; 20 mg/kg i.p.): no decrease in the sensitivity to an electric shock was noted
number of water-drinking (male ICR mice [2]; ABU 5, 10, 20 and 50 mg/kg i.p., significant only at 20 mg/kg): a significant increase in the number of water-drinking was noted only at the dose of 20 mg/kg
LD50 [3]: 1920 mg/kg
lethality (ICR mice; 500 mg/kg i.p., 8 ICR mice): no death was observed
number of lever pressing during the alarm periods (male Wistar rats; 10 mg/kg oral): significantly increased
number of lever pressing during the safety periods (male Wistar rats; 10 mg/kg oral): did not significantly change
number of lever pressing during the alarm periods (male Wistar rats; 30 mg/kg oral): significantly increased
number of lever pressing during the safety periods (male Wistar rats; 30 mg/kg oral): did not significantly change
number of lever pressing during the alarm periods (male Wistar rats; 50 mg/kg oral): significantly increased
number of lever pressing during the safety periods (male Wistar rats; 50 mg/kg oral): did not significantly change
minimal effective dose (male Wistar rats): 10 mg/kg

CCC(C)n1c(=O)[nH]c(C)c(Br)c1=O (stereo not shown) [bromacil]
minimum effective dose for single administration ([4]; oral, single administration): 100 mg/kg
anxiolytic activity ([4]; orally administered): low anxiolytic activity

Nn1cc(Cl)c(=O)[nH]c1=O [ACU, 1-Amino--5--chlorouracil]
Validity [A/B] (male ICR mice [1]): 2.3
ED50 (in vivo): 46 mg/kg
LD50 [3]: 971 mg/kg
lethality (ICR mice; 357 mg/kg i.p., 10 male ICR mice): no death was observed
number of lever pressing during the alarm periods (male Wistar rats; 20 mg/kg oral): significantly increased
number of lever pressing during the safety periods (male Wistar rats; 20 mg/kg oral): did not significantly change
number of lever pressing during the alarm periods (male Wistar rats; 30 mg/kg oral): significantly increased
number of lever pressing during the safety periods (male Wistar rats; 30 mg/kg oral): did not significantly change
minimal effective dose (male Wistar rats): 20 mg/kg

CN1C(=O)CN=C(c2ccccc2)c2cc(Cl)ccc21 [DZP, diazepam, reference compound]
Validity [A/B] (male ICR mice [1]): 1.8
ED50 (in vivo): 8.8 mg/kg
behaviors of the mice when receiving an electric shock (male ICR mice [2]; 2 mg/kg i.p.): lack of both vocalization and escape behavior
sensitivity of the mice to an electric shock (male ICR mice [2]; 2 mg/kg i.p.): decreased
number of water-drinking (male ICR mice [2]; 2 mg/kg i.p.): significantly increased
number of lever pressing during the alarm periods (male Wistar rats; 5 mg/kg oral): significantly increased
number of lever pressing during the alarm periods (male Wistar rats; 10 mg/kg oral): significantly increased
number of lever pressing during the alarm periods (male Wistar rats; 20 mg/kg oral): significantly increased
number of lever pressing during the safety periods (male Wistar rats; 20 mg/kg oral): significantly decreased
number of lever pressing during the safety periods (male Wistar rats; 50 mg/kg oral): significantly decreased
minimal effective dose (male Wistar rats): 5 mg/kg

Nn1cc(F)c(=O)[nH]c1=O [AFU, 1-amino-5-fluorouracil]
number of lever pressing during the alarm periods (male Wistar rats; 20 mg/kg oral): significantly increased
number of lever pressing during the safety periods (male Wistar rats; 20 mg/kg oral): did not significantly change
